Reference: patent US20160009697A1, “PYRIDINE DERIVATIVES AS 5-HT6 RECEPTOR ANTAGONISTS” (Selvita S.A., priority 2013, published 2016)
pKi: −log10 of the molar value.

How the values were obtained:
human 5-HT6 [1] = molecular target: T1, human 5-HT6 (Homo sapiens, UniProt P50406); assay: 5-HT6 functional assay (calcium response, Chem-10 host cells); type: cell-based; parameters: host or cells: Chem-10 host cells, co-expressing a recombinant promiscuous G protein; details: agonist serotonin, 30 min preincubation, Fluo-4NW calcium, read-out: 5-HT6 antagonist Kb
Source text: The serotonin receptor 5-HT6 is a Gs coupled receptor. In the brain it responds to serotonin and other agonists by increasing adenyl cyclase mediated production of cyclic AMP. 5-HT6 can be also functionally tested using different coupling types. Millipore's cloned human 5-HT6-expressing cell line is made in the Chem-10 host, which supports high levels of recombinant 5-HT6 expression on the cell surface and contains optimized levels of a recombinant promiscuous G protein to couple the receptor to the calcium signaling pathway. Cells were thawed, resuspended in media, dispensed into 96-well assay plates at a density of 27500 cells per well and, following over night recovery, assayed for calcium response. Tests were performed using Fluo-4NW Calcium Assay Kit (Molecular Probes #F36206) and standard testing procedure for this kit. Cells were preincubated with test compound for 30 min, then endogenous agonists serotonin was added. Fluorescence was measured by FLEXstation 3 (Molecular Devices). The apparent dissociation constants (Kb) were calculated by means of GraphPhad Prism 5 software using the modified Cheng Prusoff equation (Kb=IC50/(1+(A/EC50A)), where A=concentration of reference agonist in the assay and EC50A=EC50 value of the reference agonist). For each IC50 determination, agonist dose response curve is run in parallel with the antagonist, on the same experimental plate. Curves maximal and minimal values should be reached in assays and it is checked if Prism uses proper maximal and minimal values for curve fitting.

human H1 receptor = molecular target: T2, human H1 receptor (Homo sapiens, UniProt P35367); assay: H1 functional assay (calcium response, CHO cells); type: cell-based; details: agonist histamine, 30 min preincubation, Fluo-4NW calcium, read-out: H1 antagonist Kb
T2 construct: expressed in transfected cells; host or cells: CHO cells
Source text: (§1) The histamine receptor H1 is linked to an intracellular G-protein (Gq) that activates phospholipase C and the phosphatidylinositol (PIP2) signaling pathway. The pathway starts with stimulation of the receptor and further activation of phospholipase C (PLC). Inositol-1,4,5-triphosphate (IP3), which is one of the products of PLC activity, binds to IP3 receptor in smooth ER. Opening of IP3R, which acts as a calcium ion channel, causes an increase in Ca^2+ concentration in the cytosol, which can be quantitatively measured using calcium-sensitive fluorescent dyes.
H1 antagonism was measured in CHO cells (Chinese Hamster Ovary cell-line) transfected with pcDNA for human H1 receptor. Cells were dispensed into 96-well assay plates at a density of 25 000-30 000 cells per well and, following over night recovery, assayed for calcium response. Tests were performed using Fluo-4NW Calcium Assay Kit (Molecular Probes #F36206) and standard testing procedure for this kit. Cells were preincubated with test compound for 30 min, then endogenous agonist histamine was added. Fluorescence was measured by FLEXstation 3 (Molecular Devices). The apparent dissociation constants (Kb) were calculated by means of GraphPhad Prism 5 software using the modified Cheng Prusoff equation (Kb=IC50/(1+(A/EC50A)), where A=concentration of reference agonist in the assay and EC50A=EC50 value of the reference agonist). For each IC50 determination, agonist dose response curve is run in parallel with the antagonist, on the same experimental plate. Curves maximal and minimal values should be reached in assays and it is checked if Prism uses proper maximal and minimal values for curve fitting.

[2] = molecular target: T3, short form of human D2 receptor (Homo sapiens, UniProt P14416); assay: D2 functional assay (cAMP-Glo, CHO cells); type: cell-based; details: forskolin 10 μM, read-out: D2 antagonist Kb
T3 construct: expressed in transfected cells; host or cells: CHO cells
Method: Dopamine D2 receptor inhibits adenylyl cyclase activity. CHO cells (Chinese Hamster Ovary cell-line) transfected with short form of human D2 receptor were used for D2 functional testing. Cells were seeded at a density of 10 000 cells/well in white-walled 96-well plates one day before the experiment. Forskolin at 10 μM was used to increase the intracellular level of cAMP. Compounds were tested according to the procedure from cAMP-Glo™ kit manufacturer's instruction.

D2 receptor = molecular target: T4, D2 receptor (Homo sapiens, UniProt P14416); assay: Dopamine receptor D2 binding affinity, competitive radioligand binding with [3H]methyl-spiperone; details: membranes of recombinant cells, [3H]methyl-spiperone 0.2 nM, 60 min at 37° C.
T4 construct: expressed in transfected cells; membrane homogenates
Method: Dopamine receptor D2 binding affinity of compounds of formula I was also evaluated. […] After a 60 minute incubation at 37° C., the incubation was terminated by vacuum filtration. The filters were washed with buffer and the filters were counted for radioactivity using liquid scintillation spectrometry. Concentrations ranging from 10^−12 M to 10^−5 M of the test compound were evaluated. […] Binding in the presence of varying concentrations of test compound is expressed as a percentage of specific binding in the absence of test compound. The results are plotted as log % bound versus log concentration of test compound. […] A linear regression line of data points is plotted, from which the IC50 value is determined and the Ki value is determined based upon the following equation: […]

human 5-HT6 [3] = molecular target: T1, human 5-HT6; assay: 5-HT6 binding affinity, competitive radioligand binding with [3H]-LSD
human alpha1 receptor = assay: Alpha1 functional assay (calcium response, LNCaP cells); type: cell-based; details: agonist noradrenaline, 30 min preincubation, Fluo-4NW calcium, read-out: Alpha1 antagonist Kb
Source text: as §1, with “alpha-1 (α1) adrenergic” for “histamine”, “receptor” for “receptor H1”, “coupled” for “linked”, “the Gq heterotrimeric” for “an intracellular”, “G-protein” for “G-protein (Gq)”, “in” for “in the”
Alpha1 antagonism was measured in LNCaP (Human lymph node carcinoma of the prostate) cells expressing human alpha1 receptor. Cells were dispensed into 96-well assay plates at a density of 30 000 cells per well and, following over night recovery, assayed for calcium response. Tests were performed using Fluo-4NW Calcium Assay Kit (Molecular Probes #F36206) and standard testing procedure for this kit. Cells were preincubated with test compound for 30 min, then endogenous agonist noradrenaline was added. Fluorescence was measured by FLEXstation 3 (Molecular Devices). The apparent dissociation constants (Kb) were calculated by means of GraphPhad Prism 5 software using the modified Cheng Prusoff equation (Kb=IC50/(1+(A/EC50A)), where A=concentration of reference agonist in the assay and EC50A=EC50 value of the reference agonist). For each IC50 determination, agonist dose response curve is run in parallel with the antagonist, on the same experimental plate. Curves maximal and minimal values should be reached in assays, and it is checked if Prism uses proper maximal and minimal values for curve fitting.

T4 sequence (P14416 whole entry): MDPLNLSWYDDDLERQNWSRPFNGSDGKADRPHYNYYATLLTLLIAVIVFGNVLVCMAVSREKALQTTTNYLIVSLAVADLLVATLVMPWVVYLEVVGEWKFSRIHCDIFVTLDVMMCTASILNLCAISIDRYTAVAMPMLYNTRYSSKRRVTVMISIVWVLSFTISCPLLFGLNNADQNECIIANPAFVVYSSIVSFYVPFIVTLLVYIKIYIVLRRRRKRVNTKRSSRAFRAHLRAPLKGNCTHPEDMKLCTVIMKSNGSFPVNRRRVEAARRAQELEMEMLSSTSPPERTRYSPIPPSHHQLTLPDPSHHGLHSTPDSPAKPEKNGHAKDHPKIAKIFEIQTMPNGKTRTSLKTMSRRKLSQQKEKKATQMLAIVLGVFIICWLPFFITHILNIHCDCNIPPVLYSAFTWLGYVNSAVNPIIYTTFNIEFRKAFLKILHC
T3 sequence (P14416 1-414 isoform P14416-2): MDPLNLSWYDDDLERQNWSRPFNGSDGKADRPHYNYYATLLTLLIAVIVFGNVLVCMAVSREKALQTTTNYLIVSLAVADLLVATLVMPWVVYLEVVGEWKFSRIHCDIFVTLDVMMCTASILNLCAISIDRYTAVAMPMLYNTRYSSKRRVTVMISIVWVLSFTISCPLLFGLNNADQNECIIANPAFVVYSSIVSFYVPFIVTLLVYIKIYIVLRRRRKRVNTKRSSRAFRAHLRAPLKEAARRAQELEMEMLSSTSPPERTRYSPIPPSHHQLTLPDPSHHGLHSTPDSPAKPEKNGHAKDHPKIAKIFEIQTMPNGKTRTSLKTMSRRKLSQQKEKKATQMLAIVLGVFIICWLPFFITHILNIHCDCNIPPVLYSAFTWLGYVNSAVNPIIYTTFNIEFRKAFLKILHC
T1 sequence (P50406 whole entry): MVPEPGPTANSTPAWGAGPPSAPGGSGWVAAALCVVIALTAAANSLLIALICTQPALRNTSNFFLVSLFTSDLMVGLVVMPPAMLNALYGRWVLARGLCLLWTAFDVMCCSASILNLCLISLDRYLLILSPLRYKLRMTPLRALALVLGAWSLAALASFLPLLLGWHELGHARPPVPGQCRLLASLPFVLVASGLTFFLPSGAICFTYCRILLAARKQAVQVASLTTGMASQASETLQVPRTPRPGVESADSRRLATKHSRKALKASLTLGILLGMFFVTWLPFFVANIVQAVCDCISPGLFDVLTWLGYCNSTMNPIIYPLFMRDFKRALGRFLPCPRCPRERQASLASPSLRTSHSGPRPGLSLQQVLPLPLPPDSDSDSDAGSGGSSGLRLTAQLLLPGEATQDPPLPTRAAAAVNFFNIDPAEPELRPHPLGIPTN
T2 sequence (P35367 whole entry): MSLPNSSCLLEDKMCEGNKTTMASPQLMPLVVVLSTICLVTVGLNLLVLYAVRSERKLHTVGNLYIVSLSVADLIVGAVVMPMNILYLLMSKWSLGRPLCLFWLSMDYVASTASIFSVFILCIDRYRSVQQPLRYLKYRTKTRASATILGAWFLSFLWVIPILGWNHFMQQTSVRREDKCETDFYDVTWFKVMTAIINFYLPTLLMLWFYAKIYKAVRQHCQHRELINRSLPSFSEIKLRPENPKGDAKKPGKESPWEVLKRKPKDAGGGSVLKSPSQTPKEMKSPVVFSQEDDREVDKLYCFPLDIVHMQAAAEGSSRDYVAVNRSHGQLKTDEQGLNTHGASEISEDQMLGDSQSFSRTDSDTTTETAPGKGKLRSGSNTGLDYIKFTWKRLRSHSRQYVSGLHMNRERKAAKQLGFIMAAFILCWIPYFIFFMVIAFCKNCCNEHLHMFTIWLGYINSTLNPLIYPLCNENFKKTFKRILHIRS

Structure (SMILES)	Kb (human 5-HT6 [1])	Kb (human H1 receptor)	Kb [2]	pKi (D2 receptor)	pKi (human 5-HT6 [3])	Kb (human alpha1 receptor)
COc1ccc(-c2cc(CC3CCOCC3)nc(N3CCC(N)CC3)c2)cc1 [Example 6, 1-[4-(4-Methoxyphenyl)-6-(oxan-4-ylmethyl)pyridin-2-yl]piperidin-4-amine]	> 1000 nM	> 1000 nM	> 3500 nM	< 5.00	7.41	> 2000 nM
COc1ccc(-c2cc(C(C)C3CCOCC3)nc(N3CCN(C)CC3)c2)cc1 (stereo not drawn) [Example 7, 1-[4-(4-Methoxyphenyl)-6-[1-(oxan-4-yl)ethyl]pyridin-2-yl]-4-methyl-piperazine]	0.01 nM	> 2000 nM	340 nM	< 5.00	7.91	29.3 nM
COc1ccc(-c2cc(CC3CCOCC3)nc(N3CCNC(C)(C)C3)c2)cc1 [Example 8, 1-[4-(4-Methoxyphenyl)-6-(oxan-4-ylmethyl)pyridin-2-yl]-3,3-dimethylpiperazine]	4.7 nM	19.4 nM	> 3500 nM	< 5.00	7.44	1600 nM

More lines, main results first:

Kb (human 5-HT6 [1])	Kb (human H1 receptor)	Kb [2]	pKi (D2 receptor)	pKi (human 5-HT6 [3])	Structure (SMILES)	Kb (human alpha1 receptor)
204 nM	462 nM	> 3500 nM	5.39	7.40	CN1CCN(c2cc(-c3ccc4ccccc4n3)cc(CC3CCOCC3)n2)CC1 [Example 2, 2-[2-(4-Methylpiperazin-1-yl)-6-(oxan-4-ylmethyl)pyridin-4-yl]quinoline]	> 2000 nM
81.8 nM	> 5000 nM	> 2000 nM	5.93	7.65	CN1CCN(c2cc(-c3ccccn3)cc(CC3CCOCC3)n2)CC1 [Example 3, 1-Methyl-4-[6-(oxan-4-ylmethyl)-4-(pyridin-2-yl)pyridin-2-yl]piperazine]	83.8 nM
1.97 nM	> 5000 nM	781 nM	< 5.00	7.84	CN1CCN(c2cc(-c3cscn3)cc(CC3CCOCC3)n2)CC1 [Example 4, 1-Methyl-4-[6-(oxan-4-ylmethyl)-4-(1,3-thiazol-4-yl)pyridin-2-yl]-piperazine]	203 nM
5.06 nM	1230 nM	> 2000 nM	5.90	7.64	COc1ccc(-c2cc(CC3CCOCC3)nc(N3CCN(C)CC3)c2)c(F)c1 [Example 5, 1-[4-(2-Fluoro-4-methoxyphenyl)-6-(oxan-4-ylmethyl)pyridin-2-yl]-4-methylpiperazine]	171 nM
